According to ChEMBL document CHEMBL1201862, “PubChem BioAssay data set” (2004):
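48-hour exposure; five concentrations; linearly interpolated endpoints. GI50 is the concentration that inhibits growth by half.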 Active and inactive are the calls of the source. No stated cut-off is given here; in the data, active = GI50 up to about 1.1 µM and inactive = higher.

How the values were obtained:
Assay in all cases: NCI-60 cell line screen, 48 h
[1] = system: SK-MEL-2
[2] = system: NCI-H460
[3] = system: RXF 393
[4] = system: LOX IMVI
[5] = system: SK-OV-3
[6] = system: SNB-75
[7] = system: KM-20L2
[8] = system: CCRF-CEM
[9] = system: TK-10
[10] = system: OVCAR-5
[11] = system: IGROV-1
[12] = system: KM12
[13] = system: ACHN
[14] = system: HT-29
[15] = system: OVCAR-4
[16] = system: M19-MEL
[17] = system: HOP-62
[18] = system: SNB-78
[19] = system: HL-60
[20] = system: HCT-116
[21] = system: M14
[22] = system: HCC 2998
[23] = system: A549
[24] = system: OVCAR-8
[25] = system: SF-295
[26] = system: DLD-1
[27] = system: SNB-19
[28] = system: DMS-273
[29] = system: HCT-15
[30] = system: 786-0
[31] = system: SW-620
[32] = system: UO-31
[33] = system: CAKI-1
[34] = system: LXFL 529
[35] = system: HOP-92
[36] = system: SF-539
[37] = system: SF-268
[38] = system: K562
[39] = system: SK-MEL-5
[40] = system: RPMI-8226
[41] = system: MOLT-4
[42] = system: COLO 205
[43] = system: EKVX
[44] = system: OVCAR-3
[45] = system: UACC-257
[46] = system: DMS-114
[47] = system: U-251
[48] = system: XF498
[49] = system: SN12C
[50] = system: NCI-H23
[51] = system: Malme-3M
[52] = system: RXF 631
[53] = system: UACC-62
[54] = system: SR
[55] = system: NCI-H226
[56] = system: SK-MEL-28
[57] = system: A498
[58] = system: NCI-H522
[59] = system: HOP-18

Measured: GI50

COC(=O)/C=C1\CCC(C)O1 (stereo not given)
inactive: [1] > 100 µM | [2] > 100 µM | [3] > 100 µM | [4] > 100 µM | [5] > 100 µM | [6] 39.5 µM | [7] > 100 µM | [8] > 100 µM | [9] > 100 µM | [10] > 100 µM | [11] > 100 µM | [12] > 100 µM | [13] > 100 µM | [14] > 100 µM | [15] > 100 µM | [16] > 100 µM | [17] > 100 µM | [18] > 100 µM | [19] > 100 µM | [20] > 100 µM | [21] > 100 µM | [22] > 100 µM | [23] > 100 µM | [24] > 100 µM | [25] > 100 µM | [26] > 100 µM | [27] > 100 µM | [28] > 100 µM | [30] > 100 µM | [31] > 100 µM | [32] > 100 µM | [33] > 100 µM | [34] > 100 µM | [35] 24 µM | [36] > 100 µM | [37] > 100 µM | [38] > 100 µM | [39] > 100 µM | [40] > 100 µM | [41] > 100 µM | [42] > 100 µM | [43] > 100 µM | [44] > 100 µM | [45] > 100 µM | [46] > 100 µM | [47] > 100 µM | [48] > 100 µM | [49] > 100 µM | [50] > 100 µM | [51] > 100 µM | [52] > 100 µM | [53] > 100 µM
> 100 µM: [29]

Cc1nc(-c2nc([N+](=O)[O-])c([N+](=O)[O-])[nH]2)cs1
inactive: [1] > 100 µM | [54] > 100 µM | [2] > 100 µM | [3] > 100 µM | [4] > 100 µM | [5] > 100 µM | [6] > 100 µM | [7] > 100 µM | [8] > 100 µM | [9] > 100 µM | [10] > 100 µM | [11] > 100 µM | [12] > 100 µM | [13] > 100 µM | [14] > 100 µM | [55] > 100 µM | [15] > 100 µM | [16] > 100 µM | [17] > 100 µM | [18] > 100 µM | [19] > 100 µM | [56] > 100 µM | [20] > 100 µM | [21] > 100 µM | [57] > 100 µM | [22] > 100 µM | [23] > 100 µM | [25] > 100 µM | [26] > 100 µM | [27] > 100 µM | [28] > 100 µM | [58] > 100 µM | [31] > 100 µM | [32] > 100 µM | [33] > 100 µM | [34] > 100 µM | [35] > 100 µM | [36] > 100 µM | [37] 88.9 µM | [38] > 100 µM | [39] > 100 µM | [40] > 100 µM | [41] > 100 µM | [42] > 100 µM | [43] > 100 µM | [44] > 100 µM | [45] > 100 µM | [46] > 100 µM | [47] > 100 µM | [48] > 100 µM | [49] > 100 µM | [50] > 100 µM | [51] > 100 µM | [52] > 100 µM | [53] > 100 µM

Nc1ncnc2c1ncn2CC(O)CO (stereo not given)
inactive: [1] > 100 µM | [2] > 100 µM | [3] > 100 µM | [4] > 100 µM | [5] > 100 µM | [6] > 100 µM | [59] > 100 µM | [8] > 100 µM | [9] > 100 µM | [11] > 100 µM | [12] > 100 µM | [14] > 100 µM | [55] > 100 µM | [15] > 100 µM | [16] > 100 µM | [18] > 100 µM | [19] > 100 µM | [56] > 100 µM | [20] > 100 µM | [21] > 100 µM | [57] > 100 µM | [22] 86.7 µM | [23] > 100 µM | [24] > 100 µM | [25] > 100 µM | [26] > 100 µM | [27] > 100 µM | [28] > 100 µM | [58] > 100 µM | [30] > 100 µM | [31] > 100 µM | [32] > 100 µM | [33] > 100 µM | [34] > 100 µM | [35] > 100 µM | [36] > 100 µM | [37] > 100 µM | [38] > 100 µM | [39] > 100 µM | [40] > 100 µM | [41] > 100 µM | [42] > 100 µM | [43] > 100 µM | [44] > 100 µM | [45] > 100 µM | [46] > 100 µM | [49] > 100 µM | [50] > 100 µM | [51] > 100 µM | [52] > 100 µM | [53] > 100 µM
> 100 µM: [29]
